Test results published in patent US4963585A, “Compound, WF11605 and derivative thereof” (Fujisawa Pharmaceutical Company, Ltd., priority 1988, dated 1990).
In brackets after ≈: the same amount, converted by molar mass.

Tests used:
[1] = test system: PAF-induced degranulation in rabbit PMNLs; assay: PAF-induced degranulation (beta-glucuronidase release) of rabbit PMNLs; format: cell-based; details: Oryctolagus cuniculus, PMNL; PAF 7×10^-7 M, Cytochalasin B 10^-5 M; read-out: 50% inhibitory concentration (IC50), PAF-induced degranulation
Procedure: (§1) PMNLs were collected from the peritoneal exudates of male Japanese White rabbits. At 16 hr after the injection of 0.1% glycogen (400 ml/animal, i.p.), the peritoneal cells were collected and washed with Eagle's minimum essential medium (MEM) and resuspended in the same medium. Over 90% of the cells were judged as PMNLs after Giemsa staining .
(§2) PMNL suspension (5×10^6 cells/ml) was incubated with test substance or vehicle at 37° C. for 5 min in plastic tubes. Leukotriene B4 (LTB4, 7×10^-8 M, Cayman Chemical Co.,), […] (FMLP, 7×10^-10 M, Sigma) or platelet activating factor (PAF, 7×10^-7 M, Sigma) together with Cytochalasin B (10^-5 M, Sigma) were added and then incubated for 5 min at 37° C. Incubation was terminated by transfer to an ice bath followed by rapid centrifugation. The cell-free supernatants were subsequently assayed for the activity of beta-glucuronidase.
(§3) The assay mixture consisted of 300 μl of acetate buffer (0.1M, pH 4.6), 100 μl of sample (supernatant obtained above) and 50 μl of methylumbelliferyl-beta-D-glucuronide (1 mM, NAKARAI CHEMICAL Co.,) as substrate. […] The fluorescence (excitation; 365 nm, emission; 455 nm) of each sample was determined.
(§4) The results are expressed as percent of total beta-glucuronidase released where total are the amount of the enzyme in the cells released by 0.1% Triton X-100.

Solubility = format: physicochemical; details: free form
Candida albicans FP633 = assay: Antimicrobial activity, broth dilution method; format: cell-based; details: Sabouraud 30° C. 20 hrs
Procedure: (§5) Antimicrobial activity of WF11605 was determined by broth dilution method in a conventional manner.
(§6) ^1 Sabuoraud 30° C. 20 hrs

Candida krusei OUT-6007 = assay: Antimicrobial activity, broth dilution method; format: cell-based; details: Pichia kudriavzevii, OUT6007; Sabouraud 30° C. 20 hrs
Procedure: as §5, §6

[2] = test system: Torulopsis colliculsa IAM-4426; assay: Antimicrobial activity, broth dilution method; format: cell-based; details: Sabouraud 30° C. 20 hrs
Procedure: as §5, §6

Candida utilis = assay: Antimicrobial activity, broth dilution method; format: cell-based; details: Williopsis jadinii; Sabouraud 30° C. 20 hrs
Procedure: as §5, §6

[3] = test system: Cryptococcus albidus AHU-3922; assay: Antimicrobial activity, broth dilution method; format: cell-based; details: Naganishia albida, AHU3922; Sabouraud 30° C. 20 hrs
Procedure: as §5, §6

[4] = test system: FMLP-induced degranulation in rabbit PMNLs; assay: FMLP-induced degranulation (beta-glucuronidase release) of rabbit PMNLs; format: cell-based; details: Oryctolagus cuniculus, PMNL; FMLP 7×10^-10 M, Cytochalasin B 10^-5 M; read-out: 50% inhibitory concentration (IC50), FMLP-induced degranulation
Procedure: as §1, §2, §3, §4

[5] = test system: LTB4-induced degranulation in rabbit PMNLs; assay: LTB4-induced degranulation (beta-glucuronidase release) of rabbit PMNLs; format: cell-based; details: Oryctolagus cuniculus, PMNL, LTB4 7×10^-8 M, Cytochalasin B 10^-5 M
Procedure: as §1, §2
The assay mixture consisted of 300 μl of acetate buffer (0.1M, pH 4.6), 100 μl of sample (supernatant obtained above) and 50 μl of methylumbelliferyl-beta-D-glucuronide (1 mM, NAKARAI CHEMICAL Co.,) as substrate. The reaction was started by addition of the substrate and terminated after 15 min at 37° C. by the addition of 2 ml glycine buffer (0.1M, pH 10.32). The fluorescence (excitation; 365 nm, emission; 455 nm) of each sample was determined.
as §4

[6] = biological target: T1, ^3 H-LTB4 receptor (rabbit PMNLs) (Oryctolagus cuniculus, UniProt G1U4T1); assay: Inhibition of binding of ^3 H-LTB4 to freeze-thawed PMNLs (^3 H-LTB4 receptor assay); details: 4° C., 30 min; for ^3 H-LTB4 specific binding: control 1684 dpm
T1 construct: endogenous in cells; host or cells: freeze-thawed polymorphonuclear leukocytes (PMNLs) from peritoneal exudate of rabbit (glycogen-elicited, male Japanese White rabbits)
T1 sequence (G1U4T1 1-363): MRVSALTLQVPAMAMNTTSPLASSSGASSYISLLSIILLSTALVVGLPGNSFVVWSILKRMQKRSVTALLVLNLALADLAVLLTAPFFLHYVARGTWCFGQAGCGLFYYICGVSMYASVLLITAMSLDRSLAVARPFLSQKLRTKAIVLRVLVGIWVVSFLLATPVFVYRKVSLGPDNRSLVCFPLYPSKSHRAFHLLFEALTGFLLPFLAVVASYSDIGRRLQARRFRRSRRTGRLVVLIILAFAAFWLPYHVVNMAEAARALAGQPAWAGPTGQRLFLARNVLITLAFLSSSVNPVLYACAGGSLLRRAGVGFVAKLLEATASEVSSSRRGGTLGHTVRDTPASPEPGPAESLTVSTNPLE
Procedure: PMNLs collected from the peritoneal exudate of rabbit were suspended at a concentration of 5×10^6 /ml in Eagle's MEM, stored at -20° C. and used within 2 weeks. On use, the PMNLs were thawed at room temperature and kept at 4° C.
^3 H-LTB4 ((5,6,8,9,11,14,15 (n)-^3 H)Leukotriene B4, 20 μCi/ml, Amersham Co., Japan) was diluted 20-fold with 3×10^-9M nonradioactive LTB4 in Hanks' balanced salt solution containing 10 mM N-(2-Hydroxyethyl)-piperazine-N'-2-ethanesulfonic acid, pH 7.4 (HBSS-HEPES). Fifteen microlitter of the solution was added to 60 μl HBSS-HEPES at 4° C. and then 25 μl of competitor or corresponding vehicle and 150 μl of freeze-thrawed cells (5×10^6 /ml) were also added, followed by vigorous mixing and allowing to stand for 30 min at 4° C. The resultant mixture was immediately filtered through Whatman GF/C glass filter to separate free and bound ^3 H-LTB4 using cell harvester (BRANDELL M-24R 5/8). The filter paper was quickly washed 5 times by 150 μl of cold HBSS-HEPES, dried, cut off and placed in a scintillation vial. To the vial was added 3 ml of toluene-based scintillation fluid and then the radioactivity was counted. All assay were carried out in duplicate. Specific binding defined as total binding minus non specific binding (with 0.1 μM LTB4), was about 60% of total binding.

Mucor rouxianus Wehmer = assay: Antimicrobial activity, broth dilution method; format: cell-based; details: Sabouraud 25° C. 40 hrs
Procedure: as §5
^2 Sabouraud 25° C. 40 hrs

certain yeasts = assay: Antimicrobial activity, broth dilution method (summary); format: cell-based
Procedure: as §5

[7] = Acute toxicity, intraperitoneal, mice; details: mouse, in vivo, ip, female, 4 weeks old
Text: The WF11605 was intraperitoneally given to mice (female, 4 weeks old). From the test results, LD50 of WF11605 was more than 1 g/kg.

In the case of `CC(=O)OC1CC2(C)C3=C(CCC2C(C)(C)C1OC1OC(CO)C(O)C(O)C1O)C1(C)CC(=O)C(C)(C(C)C(C)C)C(C(=O)O)C1(C)CC3` (stereo not shown) [WF11605], the IC50 [1] is reported as greater than 100 µM, the Solubility (Solubility; H2 O, methanol, ethanol) is reported as “sparingly soluble” and the Solubility (Solubility; chloroform, ether) is reported as “insoluble”. For the same compound, the MIC (Candida albicans FP633) was 25 µg/mL (≈ 36.1 µM), the MIC (Candida krusei OUT-6007) was 25 µg/mL (≈ 36.1 µM) and the MIC [2] was 50 µg/mL (≈ 72.2 µM). It also gave an MIC (Candida utilis) of 50 µg/mL (≈ 72.2 µM), an MIC [3] of 100 µg/mL (≈ 144 µM) and an IC50 [4] greater than 100 µM. For the same compound, the IC50 ([5]; read-out: 50% inhibitory concentration (IC50), LTB4-induced degranulation) was 3 µM, the inhibition at 100 µM ([5]; WF11605 10^-4 M, read-out: Inhibition of total beta-glucuronidase release) was 93.6% and the inhibition at 10 µM ([5]; WF11605 10^-5 M, read-out: Inhibition of total beta-glucuronidase release) was 66.9%. It also gave an inhibition at 1 µM ([5]; WF11605 10^-6 M, read-out: Inhibition of total beta-glucuronidase release) of 30.3%, an inhibition at 0.1 µM ([5]; WF11605 10^-7 M, read-out: Inhibition of total beta-glucuronidase release) of 17.5% and an inhibition at 0.01 µM ([5]; WF11605 10^-8 M, read-out: Inhibition of total beta-glucuronidase release) of 12.2%. For the same compound, the “^3 H-LTB4 specific binding” value ([6]; WF11605 7 × 10^-6 M) was 596 dpm, the inhibition at 7 µM ([6]; WF11605 7 × 10^-6 M, read-out: inhibition of 3H-LTB4 specific binding) was 64.6% and the “^3 H-LTB4 specific binding” value ([6]; WF11605 7 × 10^-7 M) was 1264 dpm. For the same compound, the inhibition at 0.7 µM ([6]; WF11605 7 × 10^-7 M, read-out: inhibition of 3H-LTB4 specific binding) was 24.9%, the MIC (Mucor rouxianus Wehmer) was 200 µg/mL (≈ 289 µM) and the Antimicrobial activity (certain yeasts) was “has antimicrobial activity against certain yeasts”. For the same compound, the LD50 [7] was greater than 1000 mg/kg.
